Test results from patent publication US9375493B2, “Bacterial imaging agents and methods of using same” (VisEn Medical, Inc., priority 2012, dated 2016).

What was measured:
Escherichia coli [1] = assay: In vitro binding of bacterium targeting agent to bacteria, flow cytometry; assay type: cell-based; conditions: 10 μM final in TES buffer, RT, 1 hour; FIG. 1A/1B
Protocol: (§1) Bacteria were grown at 37° C. to an OD600=0.3-0.5 and centrifuged at 3500 rpm for 4 minutes before the subsequent pellets were re-suspended in TES buffer. Bacteria with or without targeting agent were grown under the same conditions. Bacterial targeting agents, compound A7, were incubated with bacterial pellets at a concentration of 10 μM final in TES buffer at RT for 1 hour. […] In this experiment, fluorescence is only associated with bacteria in the presence of the bacterium targeting agent described herein.

[2] = system: Staphylococcus epidermidis; assay: as above; assay type: cell-based; conditions: 10 μM final in TES buffer, RT, 1 hour; FIG. 1A/1B
Protocol: as §1

[3] = system: Staphylococcus epidermidis; assay: In vivo imaging of Staphylococcus epidermidis thigh infection (FMT2500); parameters: species or system SKH1-E female mice; conditions: 10^8 CFUs i.m. left thigh; 5 nM agent i.v. about 24 hours after inoculation; imaged one, two and three hours after agent injection; all time points
Protocol: SKH1-E female mice, aged 6-8 weeks, were injected intramuscularly with 10^8 CFUs (colony forming units) of Staphylococcus epidermidis in the left thigh. Mice were given intravenous injections of 5 nM of bacterium targeting agent, compound A7, approximately 24 hours after the initial bacterial inoculation.

Escherichia coli [4] = assay: In vivo imaging of Escherichia coli thigh infection (FMT2500); parameters: species or system SKH1-E female mice; conditions: 10^5-10^8 CFUs i.m. left thigh; 5 nM agent i.v. about 24 hours after inoculation; imaged one hour after agent injection
Protocol: SKH1-E female mice, aged 6-8 weeks, were injected intramuscularly in the left thigh with different concentrations of Escherichia coli at 10^5-10^8 CFUs. At approximately 24 hours after the initial bacterial inoculation, mice were given intravenous injections of 5 nM of bacterium targeting agent, compound A7.

CN1/C(=C/C=C(/C=C/C2=[N+](CCCS(=O)(=O)O)c3ccccc3C2(C)C)c2ccc(C(=O)NCCCCCC(=O)NCC(=O)Nc3ccc(CC[N+]45CC[N+](C)(CC4)CC5)cc3)cn2)C(C)(C)c2ccccc21 [Compound A7, 3-(3,3-dimethyl-2-((1E,3Z,5E)-3-(5-((6-((2-((4-(2-(4-methyl-1,4-diazabicyclo[2.2.2]octan-1,4-diium-1-yl)ethyl)phenyl)amino)-2-oxoethyl)amino)-6-oxohexyl)carbamoyl)pyridin-2-yl)-5-(1,3,3-trimethylindolin-2-ylidene)penta-1,3-dien-1-yl)-3H-indol-1-ium-1-yl)propane-1-sulfonate di-acetate]
in vitro binding to bacteria (fluorescence by flow cytometry) (Escherichia coli [1]): in vitro binding
in vitro binding to bacteria (fluorescence by flow cytometry) [2]: in vitro binding
differentiation between infected and uninfected areas (fluorescence, tomographic imaging) [3]: Statistically significant differentiation between infected and uninfected areas
uptake of the agent at the site of infection (tomographic images) (Escherichia coli [4]): clear uptake of the bacterial targeting agent at the site of the infection
